Experimental data: ChEMBL document CHEMBL1157008, “Discovery of 2-{4-[(3S)-piperidin-3-yl]phenyl}-2H-indazole-7-carboxamide (MK-4827): a novel oral poly(ADP-ribose)polymerase (PARP) inhibitor efficacious in BRCA-1 and -2 mutant tumors” (J Med Chem, 2009)

Legend:
PARP 1, 2 and 3 [1] = biological target: T1, PARP 1, 2 and 3 (Homo sapiens, UniProt P09874+Q9Y6F1+Q9UGN5); test: Inhibition of PARP in hydrogen peroxide-induced human HeLa cells assessed as inhibition DNA-damage-induced PARylation; format: cell-based
HeLa [2] = test: Antiproliferative activity against BRCA1 deficient human HeLa cells after 7 days by cell titer-blue assay; format: functional; conditions: 168 h
[3] = Intrinsic clearance in mouse liver microsomes assessed per mg of protein up to 90 mins; format: ADME, Microsome
Cytochrome P450 1A2 = biological target: T2, Cytochrome P450 1A2 (Rattus norvegicus, UniProt P04799); test: (§1) Intrinsic clearance in rat liver microsomes assessed per mg of protein up to 60 mins in presence of rat recombinant CYP1A2; format: ADME, Microsome; conditions: microsomes, 1 h
T2 sequence (P04799 whole entry): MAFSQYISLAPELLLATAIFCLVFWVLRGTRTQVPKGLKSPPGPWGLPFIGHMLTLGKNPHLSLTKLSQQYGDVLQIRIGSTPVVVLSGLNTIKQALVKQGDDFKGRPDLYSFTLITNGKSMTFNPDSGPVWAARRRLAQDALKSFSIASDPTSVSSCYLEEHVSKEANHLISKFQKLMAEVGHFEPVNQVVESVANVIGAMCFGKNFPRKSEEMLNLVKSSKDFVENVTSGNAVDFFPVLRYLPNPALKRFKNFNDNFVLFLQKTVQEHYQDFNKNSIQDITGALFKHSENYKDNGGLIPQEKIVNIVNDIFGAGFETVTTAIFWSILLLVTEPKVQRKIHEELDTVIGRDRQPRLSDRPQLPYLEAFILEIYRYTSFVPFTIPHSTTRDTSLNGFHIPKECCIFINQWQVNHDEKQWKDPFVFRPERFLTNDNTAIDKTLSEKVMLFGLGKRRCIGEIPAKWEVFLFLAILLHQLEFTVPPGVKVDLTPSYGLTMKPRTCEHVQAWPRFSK

[4] = biological target: Poly [ADP-ribose] polymerase 1 (Homo sapiens, UniProt P09874); test: Inhibition of human PARP1 by SPA
HeLa [5] = test: Antiproliferative activity against human HeLa cells expressing wild type BRCA1 after 7 days by cell titer-blue assay; format: functional; conditions: 168 h
PARP 1, 2 and 3 [6] = biological target: T1, PARP 1, 2 and 3; conditions: HeLa
[7] = Intrinsic clearance in rat liver microsomes assessed per mg of protein up to 90 mins; format: ADME, Microsome
HeLa [8] = test: Selectivity index, ratio of CC50 for BRCA1 proficient human HeLa cells to CC50 for BRCA1 deficient human HeLa cells; format: functional
[9] = Plasma clearance in rat; format: ADME, organism-based
[10] = Solubility in phosphate buffer; format: physicochemical
[11] = Oral bioavailability in rat; format: ADME, organism-based; conditions: in vivo
CYP1A2 = biological target: T3, CYP1A2 (Rattus norvegicus, UniProt P04799); test: as §1; format: ADME, Microsome; conditions: rat liver microsomes with rat recombinant CYP1A2
T3 sequence (P04799 whole entry): T2 sequence (P04799 whole entry)

[12] = Terminal half life in rat; format: ADME, organism-based; conditions: in vivo, read-out: beta t1/2 (converted)
[13] = Volume of distribution in rat; format: ADME, organism-based; conditions: in vivo

Poly [ADP-ribose] polymerase 1, sequence (P09874 whole entry): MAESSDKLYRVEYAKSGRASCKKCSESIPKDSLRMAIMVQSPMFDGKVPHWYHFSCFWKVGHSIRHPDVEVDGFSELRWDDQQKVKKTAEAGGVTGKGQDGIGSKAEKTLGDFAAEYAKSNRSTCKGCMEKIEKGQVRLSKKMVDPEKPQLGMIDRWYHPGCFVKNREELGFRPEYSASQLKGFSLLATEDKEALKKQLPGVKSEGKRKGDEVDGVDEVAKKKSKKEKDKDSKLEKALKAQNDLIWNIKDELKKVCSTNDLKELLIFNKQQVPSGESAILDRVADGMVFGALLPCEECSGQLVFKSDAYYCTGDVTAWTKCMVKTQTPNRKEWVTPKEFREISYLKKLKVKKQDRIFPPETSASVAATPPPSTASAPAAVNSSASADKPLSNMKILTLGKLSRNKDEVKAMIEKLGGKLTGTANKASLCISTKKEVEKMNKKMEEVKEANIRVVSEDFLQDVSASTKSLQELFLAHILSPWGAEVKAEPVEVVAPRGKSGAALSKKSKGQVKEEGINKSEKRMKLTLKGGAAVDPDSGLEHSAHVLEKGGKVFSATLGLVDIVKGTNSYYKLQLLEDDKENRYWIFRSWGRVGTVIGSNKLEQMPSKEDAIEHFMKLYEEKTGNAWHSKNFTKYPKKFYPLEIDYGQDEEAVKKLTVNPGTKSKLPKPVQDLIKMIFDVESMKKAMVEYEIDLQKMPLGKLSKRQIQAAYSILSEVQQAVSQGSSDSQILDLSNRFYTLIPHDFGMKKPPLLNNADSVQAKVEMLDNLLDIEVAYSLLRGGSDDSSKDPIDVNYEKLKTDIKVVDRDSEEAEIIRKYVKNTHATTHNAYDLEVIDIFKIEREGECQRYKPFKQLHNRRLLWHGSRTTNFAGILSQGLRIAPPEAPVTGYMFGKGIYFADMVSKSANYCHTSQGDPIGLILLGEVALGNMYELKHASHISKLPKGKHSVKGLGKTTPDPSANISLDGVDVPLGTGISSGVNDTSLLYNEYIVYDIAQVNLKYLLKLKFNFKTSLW

SMILES | EC50 (PARP 1, 2 and 3 [1]) | CC50 (HeLa [2]) | microsomal CLint [3] | CL (Cytochrome P450 1A2) | IC50 [4] | CC50 (HeLa [5]) | EC90 (PARP 1, 2 and 3 [6]) | microsomal CLint [7] | Selectivity Index (HeLa [8]) | clearance [9] | solubility [10] | bioavailability [11] | microsomal CLint (CYP1A2) | half-life [12] | Vd [13]
CNC(C)(C)c1ccc(-n2cc3cccc(C(N)=O)c3n2)cc1 | 110 nM | 920 nM | < 1 µL/min/mg | 0.4 µL/min/mg | 16 nM | 5.5 µM | 900 nM | 11 µL/min/mg |  |  |  |  |  |  | 
NC(=O)c1cccc2cc(-c3ccccc3)nn12 |  |  |  |  | 55 nM |  |  |  |  |  |  |  |  |  | 
NC(=O)c1cccc2cn(Cc3ccccc3)nc12 | > 5000 nM |  |  |  | 130 nM |  | > 5000 nM |  |  |  |  |  |  |  | 
CNCCc1ccc(-n2cc3cccc(C(N)=O)c3n2)cc1 |  | 19000 nM |  |  | 200 nM | > 20 µM |  |  |  |  |  |  |  |  | 
NC(=O)c1cccn2nc(-c3ccccc3)nc12 |  |  |  |  | 270 nM |  |  |  |  |  |  |  |  |  | 
CN(C)CCN(C)Cc1ccc(-n2cc3cccc(C(N)=O)c3n2)cc1 | 170 nM | 3900 nM |  |  | 5.9 nM | > 20 µM | 4400 nM |  |  |  |  |  |  |  | 
CN(C)Cc1ccc(-n2cc3cccc(C(N)=O)c3n2)cc1 | 110 nM | 520 nM | 1 µL/min/mg | 8.7 µL/min/mg | 3.7 nM | 5.6 µM | 630 nM | 177 µL/min/mg | 10 | 450 mL/min/kg | > 3000 µg/mL |  |  |  | 
NC(=O)c1cccc2cn(-c3ccc4c(c3)CCNC4)nc12 | 13 nM | 270 nM | 3 µL/min/mg | 0.7 µL/min/mg | 1.4 nM | 5.4 µM | 140 nM | 36 µL/min/mg | 20 |  |  | 22% |  |  | 
NC(=O)c1cccc2cn(-c3ccc(CN4CCOCC4)cc3)nc12 | 1200 nM | 5300 nM |  |  | 17 nM | > 20 µM | 6200 nM |  |  |  |  |  |  |  | 
NC(=O)c1cccc2cn(-c3ccc(C4CCNCC4)cc3)nc12 |  | 410 nM | 5 µL/min/mg |  | 9 nM | 4.5 µM |  | 15 µL/min/mg |  |  |  |  | < 0.1 µL/min/mg |  | 
NC(=O)c1cccc2cn(-c3ccc(CN4CCCC4)cc3)nc12 | 94 nM | 1200 nM |  |  | 4.8 nM | 8.1 µM | 450 nM |  | 5 |  |  |  |  |  | 
NC(=O)c1cccc2cn(-c3ccc(CNCCF)cc3)nc12 | > 5000 nM |  |  |  | 2.1 nM |  |  |  |  |  |  |  |  |  | 
NC(=O)c1cccc2cn(-c3ccc(CNCC(F)F)cc3)nc12 | 3400 nM | > 6600 nM |  |  | 14 nM | > 6.6 µM | 7600 nM |  |  |  |  |  |  |  | 
CC(C)NCc1ccc(-n2cc3cccc(C(N)=O)c3n2)cc1 | 700 nM | 2000 nM | 1 µL/min/mg |  | 6.7 nM | 10 µM | 2000 nM | 18 µL/min/mg |  | 131 mL/min/kg |  |  | 0.8 µL/min/mg |  | 
CN1CCN(Cc2ccc(-n3cc4cccc(C(N)=O)c4n3)cc2)CC1 | 1100 nM | 2700 nM | 2 µL/min/mg |  | 31 nM | 7.9 µM | 2700 nM | 34 µL/min/mg | 3 | 8 mL/min/kg |  | 11% | < 0.1 µL/min/mg |  | 
NC(=O)c1cccc2cn(-c3ccc(Cl)cc3)nc12 | 720 nM |  |  |  | 24 nM |  | 6700 nM |  |  |  |  |  |  |  | 
CNC(C)c1ccc(-n2cc3cccc(C(N)=O)c3n2)cc1 (stereo not drawn) | 58 nM | 3100 nM | 1 µL/min/mg |  | 3.7 nM | 14 µM | 680 nM | 9 µL/min/mg |  | 58 mL/min/kg |  |  | 2.2 µL/min/mg |  | 
NC(=O)c1cccc2cn(-c3ccc(C4CCCNC4)cc3)nc12 (stereo not drawn) |  | 72 nM | 1 µL/min/mg | 0.3 µL/min/mg |  | 2 µM | 220 nM | 11 µL/min/mg |  | 47 mL/min/kg |  | 74% |  |  | 
CNCc1cccc(-n2cc3cccc(C(N)=O)c3n2)c1 |  | 10300 nM | 5 µL/min/mg |  | 5.3 nM | > 20 µM |  | 32 µL/min/mg |  | 69 mL/min/kg |  |  | 5.4 µL/min/mg |  | 
NC(=O)c1cccc2cn(-c3ccc4c(c3)CNCC4)nc12 | 46 nM | 130 nM | 4 µL/min/mg |  | 2.2 nM | 2.2 µM | 310 nM | 52 µL/min/mg | 16 | 87 mL/min/kg |  |  | 0.7 µL/min/mg |  | 
NC(=O)c1cccc2cn(-c3cccc(Cl)c3)nc12 | 450 nM |  |  |  | 14 nM |  | 5600 nM |  |  |  |  |  |  |  | 
NC(=O)c1cccc2cn(-c3ccc(CN4CCCCC4)cc3)nc12 | 180 nM | 880 nM | 3 µL/min/mg |  | 1.9 nM | 5.8 µM | 970 nM | 29 µL/min/mg | 5 | 107 mL/min/kg |  |  | 3.8 µL/min/mg |  | 
NC(=O)c1cccc2cn(-c3ccccc3)nc12 | 3700 nM |  | 138 µL/min/mg |  | 24 nM |  | 6200 nM | 123 µL/min/mg |  | 30 mL/min/kg |  | 41% |  | 306 min | 1.8 L/kg
NC(=O)c1cccc2cn(-c3ccc(C4CCCN4)cc3)nc12 (stereo not drawn) | 31 nM | 190 nM | 4 µL/min/mg |  | 3.1 nM | 10 µM | 430 nM | 22 µL/min/mg |  |  |  |  | 2.5 µL/min/mg |  | 
NC(=O)c1cccc2cn(-c3ccccc3Cl)nc12 |  |  |  |  | 100 nM |  |  |  |  |  |  |  |  |  | 
CCNCc1ccc(-n2cc3cccc(C(N)=O)c3n2)cc1 | 150 nM | 1600 nM |  |  | 4.3 nM | 7.4 µM | 2100 nM |  |  |  |  |  |  |  | 
NC(=O)c1cccc2nn(-c3ccccc3)nc12 |  |  |  |  | 71 nM |  |  |  |  |  |  |  |  |  | 
NC(=O)c1cccc2cn(-c3ccc([C@H]4CCCNC4)cc3)nc12 |  | 470 nM | 3 µL/min/mg |  |  | 5.7 µM | 280 nM | 7 µL/min/mg |  | 24 mL/min/kg |  | 47% | < 0.1 µL/min/mg |  | 
